For one series, the target named is T1, NK2 receptors (Rattus norvegicus, UniProt P16610).
T1 construct: prevent the increase in intestinal transit induced by the stimulation of NK2 receptors by the β-Ala^8-NKA(4-10) agonist; from tissue; host or cells: whole animal: infant rats aged 7-10 days (intestine, in vivo)
T1 sequence (P16610 1-390): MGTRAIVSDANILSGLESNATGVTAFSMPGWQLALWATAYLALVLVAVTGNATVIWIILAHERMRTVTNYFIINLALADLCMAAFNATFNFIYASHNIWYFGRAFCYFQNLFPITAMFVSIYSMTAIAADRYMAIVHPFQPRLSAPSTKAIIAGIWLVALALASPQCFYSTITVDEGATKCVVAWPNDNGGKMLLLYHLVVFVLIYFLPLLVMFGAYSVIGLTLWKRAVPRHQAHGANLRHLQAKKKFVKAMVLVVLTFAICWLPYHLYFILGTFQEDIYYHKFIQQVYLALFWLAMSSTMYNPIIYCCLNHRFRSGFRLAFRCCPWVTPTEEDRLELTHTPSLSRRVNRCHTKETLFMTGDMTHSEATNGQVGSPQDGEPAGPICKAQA
The series can be described thus: Intestinal transit of a carbon suspension in infant rats, increase induced by NK2 selective agonist β-Ala^8-NKA(4-10). The class given is in vivo. Particulars: infant rats aged 7-10 days. The procedure: (§1) The formulations of the present invention were tested for their biological activity in vivo on newborn rats in accordance with the following method:
(§2) a) The NK2 selective agonist β-Ala^8-NKA(4-10) was administered intraperitoneally to infant rats aged between 7 and 10 days, both males and females, at a dose of 15 μg/kg. A 10% suspension of carbon in 1% methylcellulose was then administered orally to the animals at a volume of 15 ml/kg. The same carbon-based suspension was administered to a control group which had not received the NK2 agonist.

The test system of the next series is infant rats. As to the kind of experiment: Basal intestinal transit in infant rats without agonist administration. Type of series: in vivo. As to conditions: oral, nepadutant 2.5 mg/kg, measured at 6 hours after administration, no agonist. The procedure:
as §1, §2

A short description of a further series: clinical. Particulars: human, in vivo, po.
On the set-up of series [1]: species or system rats. As to conditions: rat, in vivo, po.
For a further series, the system named is animal models of IBS. As to conditions: cited from earlier work.
The subject of the next series is infantile colics. Particulars: clinical evidence from literature; cited from earlier work.

Positions of bridges follow the written chain, without caps; N, C: chain ends. Non-standard residues stand in square brackets, D forms with d. Residues, ends and D or L forms follow the SMILES beside them. *: point of attachment. NH(β-GlcNAc) = CC(=O)N[C@@H]1[C@@H](O)[C@H](O)[C@@H](CO)O[C@H]1N*; Dap = NC[C@H](N)C(=O)O

With `CC(=O)N[C@@H]1[C@@H](O)[C@H](O)[C@@H](CO)O[C@H]1NC(=O)C[C@@H]1NC(=O)[C@H](CC(C)C)NC(=O)[C@@H]2CNC(=O)C[C@H](NC1=O)C(=O)N[C@@H](Cc1c[nH]c3ccccc13)C(=O)N[C@@H](Cc1ccccc1)C(=O)N2` [Nepadutant, cyclo((Asn(β-D-2-deoxy-2-acetamido-Glc)-Asp-Trp-Phe-Dap-Leu)cyclo(2β-5β))] (cyclo(D(NH(β-GlcNAc))DWF[Dap]L); lactam 2-5), the “prevention of the increase in intestinal transit induced by β-Ala^8-NKA(4-10)” value on NK2 receptors (oral, nepadutant 0.5 and 2.5 mg/kg at 2, 4 and 6 hours before agonist 15 μg/kg i.p.) is given as “able to prevent the increase in intestinal transit”. For the same compound, the “effect on basal intestinal transit” value in the series on infant rats is listed as “no effect on basal intestinal transit”. Moreover, the bioavailability in “clinical” turned out to be 1%. For the same compound, in series [1], the “bioavailability in infant rats” value is given as “substantially enhanced”. Also, in the series with animal models of IBS, the correction of hyperalgesia result was “corrects hyperalgesia”.
On to simethicone, for which, in the series on infantile colics, the effect versus placebo entry is recorded as “no better than placebo”.
With β-Ala^8-NKA(4-10) [reference compound], at NK2 receptors (15 μg/kg i.p., versus control group without agonist), the “increase in intestinal transit after agonist administration” value is reported as “significant increase in intestinal transit”.
